This passage reports Activity results from ChEMBL document CHEMBL5678818, “Discovery of potent SOS1 inhibitors that block RAS activation via disruption of the RAS-SOS1 interaction” (Proc Natl Acad Sci U S A, 2019).

Assay [1] concerns the target Serine/threonine-protein kinase PLK2 (Homo sapiens) (UniProt Q9NYY3). Put plainly: Inhibition of PLK2 (unknown origin) assessed as residual activity at 100 nM by KINOMEscan analysis relative to control.
Assay [2] deals with T1, Serine/threonine-protein kinase Nek3 (Homo sapiens) (UniProt P51956).
T1 sequence (whole entry): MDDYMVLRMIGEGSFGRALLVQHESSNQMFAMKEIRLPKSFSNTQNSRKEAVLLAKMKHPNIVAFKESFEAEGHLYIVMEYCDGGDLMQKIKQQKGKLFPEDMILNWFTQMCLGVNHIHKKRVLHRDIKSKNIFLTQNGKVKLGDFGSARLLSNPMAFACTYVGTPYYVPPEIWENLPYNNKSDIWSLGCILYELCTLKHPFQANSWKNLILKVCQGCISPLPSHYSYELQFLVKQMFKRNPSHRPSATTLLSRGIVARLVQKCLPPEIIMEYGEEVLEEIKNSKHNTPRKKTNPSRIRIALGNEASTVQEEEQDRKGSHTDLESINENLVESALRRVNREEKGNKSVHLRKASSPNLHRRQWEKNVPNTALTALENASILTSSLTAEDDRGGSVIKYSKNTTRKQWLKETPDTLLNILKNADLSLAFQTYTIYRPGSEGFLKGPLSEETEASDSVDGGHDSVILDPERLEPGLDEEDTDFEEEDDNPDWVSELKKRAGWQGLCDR
In words: Inhibition of NEK3 (unknown origin) assessed as residual activity at 100 nM by KINOMEscan analysis relative to control.

Assay [3] deals with Hepatocyte growth factor receptor (Homo sapiens), P08581 [M1250T]. In words: Inhibition of MET M1250T mutant (unknown origin) assessed as residual activity at 100 nM by KINOMEscan analysis relative to control.
Assay [4] addresses Interferon-induced, double-stranded RNA-activated protein kinase (Homo sapiens) (UniProt P19525). In words: Inhibition of PRKR (unknown origin) assessed as residual activity at 100 nM by KINOMEscan analysis relative to control.
In assay [5] the test system is Mast/stem cell growth factor receptor Kit (Homo sapiens), P10721 [A829P]. In words: Inhibition of KIT A829P mutant (unknown origin) assessed as residual activity at 100 nM by KINOMEscan analysis relative to control.
The target in assay [6] is T2, Mitogen-activated protein kinase kinase kinase 19 (Homo sapiens) (UniProt Q56UN5).
T2 sequence (whole entry): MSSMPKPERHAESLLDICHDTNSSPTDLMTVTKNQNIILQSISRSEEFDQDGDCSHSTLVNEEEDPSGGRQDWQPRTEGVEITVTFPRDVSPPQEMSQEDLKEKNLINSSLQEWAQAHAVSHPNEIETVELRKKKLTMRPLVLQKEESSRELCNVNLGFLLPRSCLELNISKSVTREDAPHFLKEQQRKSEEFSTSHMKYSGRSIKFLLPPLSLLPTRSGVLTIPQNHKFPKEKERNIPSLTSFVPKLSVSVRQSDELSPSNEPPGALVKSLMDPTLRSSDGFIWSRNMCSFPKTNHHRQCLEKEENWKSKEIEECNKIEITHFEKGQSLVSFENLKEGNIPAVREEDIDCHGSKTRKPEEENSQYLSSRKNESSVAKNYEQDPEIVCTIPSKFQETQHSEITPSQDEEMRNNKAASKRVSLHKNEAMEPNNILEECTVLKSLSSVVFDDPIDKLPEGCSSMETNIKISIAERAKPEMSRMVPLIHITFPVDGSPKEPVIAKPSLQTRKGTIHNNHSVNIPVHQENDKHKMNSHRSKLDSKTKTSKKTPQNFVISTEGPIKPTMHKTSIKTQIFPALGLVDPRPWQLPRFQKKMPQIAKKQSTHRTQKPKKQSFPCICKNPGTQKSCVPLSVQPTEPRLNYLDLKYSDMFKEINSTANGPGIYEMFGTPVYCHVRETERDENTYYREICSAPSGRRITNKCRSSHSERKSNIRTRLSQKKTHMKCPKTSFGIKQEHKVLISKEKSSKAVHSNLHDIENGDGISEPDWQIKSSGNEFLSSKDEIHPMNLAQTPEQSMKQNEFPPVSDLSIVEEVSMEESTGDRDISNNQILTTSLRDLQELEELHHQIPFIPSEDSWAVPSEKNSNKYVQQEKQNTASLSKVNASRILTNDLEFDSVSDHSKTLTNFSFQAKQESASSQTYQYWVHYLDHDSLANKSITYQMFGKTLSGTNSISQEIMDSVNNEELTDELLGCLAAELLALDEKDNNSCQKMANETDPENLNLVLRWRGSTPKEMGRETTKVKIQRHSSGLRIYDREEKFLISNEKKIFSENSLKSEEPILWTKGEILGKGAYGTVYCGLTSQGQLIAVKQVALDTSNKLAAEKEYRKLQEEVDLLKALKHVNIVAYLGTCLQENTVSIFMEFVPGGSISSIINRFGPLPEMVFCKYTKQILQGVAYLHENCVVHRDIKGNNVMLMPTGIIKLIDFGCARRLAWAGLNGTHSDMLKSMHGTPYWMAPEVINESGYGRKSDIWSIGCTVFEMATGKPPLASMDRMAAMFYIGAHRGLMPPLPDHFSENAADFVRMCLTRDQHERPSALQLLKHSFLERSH
In words: Inhibition of YSK4 (unknown origin) assessed as residual activity at 100 nM by KINOMEscan analysis relative to control.

The target in assay [7] is Calcium/calmodulin-dependent protein kinase kinase 1 (Homo sapiens) (UniProt Q8N5S9). In words: Inhibition of CAMKK1 (unknown origin) assessed as residual activity at 100 nM by KINOMEscan analysis relative to control.
Assay [8] relates to Tyrosine-protein kinase ABL1 (Homo sapiens), P00519 [Q252H]. Put plainly: Inhibition of nonphosphorylated ABL1 Q252H mutant (unknown origin) assessed as residual activity at 100 nM by KINOMEscan analysis relative to control.
For assay [9], the target named is Microtubule-associated serine/threonine-protein kinase 1 (Homo sapiens) (UniProt Q9Y2H9). In words: Inhibition of MAST1 (unknown origin) assessed as residual activity at 100 nM by KINOMEscan analysis relative to control.
Assay [10] deals with Vascular endothelial growth factor receptor 1 (Homo sapiens) (UniProt P17948). In words: Inhibition of FLT1 (unknown origin) assessed as residual activity at 100 nM by KINOMEscan analysis relative to control.

Sequence of Serine/threonine-protein kinase PLK2 (Homo sapiens) (Q9NYY3 whole entry, looked up): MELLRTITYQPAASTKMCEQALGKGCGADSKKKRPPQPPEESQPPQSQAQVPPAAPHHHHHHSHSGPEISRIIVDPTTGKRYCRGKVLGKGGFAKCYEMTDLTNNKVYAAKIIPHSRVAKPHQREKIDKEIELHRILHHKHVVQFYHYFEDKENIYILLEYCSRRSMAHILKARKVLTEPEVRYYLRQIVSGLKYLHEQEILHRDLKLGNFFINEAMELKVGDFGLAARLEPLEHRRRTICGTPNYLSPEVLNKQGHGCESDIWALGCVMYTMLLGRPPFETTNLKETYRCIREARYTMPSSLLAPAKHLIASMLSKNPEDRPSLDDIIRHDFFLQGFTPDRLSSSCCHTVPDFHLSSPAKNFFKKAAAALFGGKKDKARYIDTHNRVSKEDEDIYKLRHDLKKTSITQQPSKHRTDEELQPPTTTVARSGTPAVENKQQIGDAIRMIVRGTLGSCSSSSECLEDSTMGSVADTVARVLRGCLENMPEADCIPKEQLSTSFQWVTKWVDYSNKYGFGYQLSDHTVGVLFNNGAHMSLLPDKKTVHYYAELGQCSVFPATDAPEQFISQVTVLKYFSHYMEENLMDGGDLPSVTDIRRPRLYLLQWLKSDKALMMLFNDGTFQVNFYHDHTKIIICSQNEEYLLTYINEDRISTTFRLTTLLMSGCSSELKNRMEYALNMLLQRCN
Sequence of Calcium/calmodulin-dependent protein kinase kinase 1 (Homo sapiens) (Q8N5S9 whole entry, looked up): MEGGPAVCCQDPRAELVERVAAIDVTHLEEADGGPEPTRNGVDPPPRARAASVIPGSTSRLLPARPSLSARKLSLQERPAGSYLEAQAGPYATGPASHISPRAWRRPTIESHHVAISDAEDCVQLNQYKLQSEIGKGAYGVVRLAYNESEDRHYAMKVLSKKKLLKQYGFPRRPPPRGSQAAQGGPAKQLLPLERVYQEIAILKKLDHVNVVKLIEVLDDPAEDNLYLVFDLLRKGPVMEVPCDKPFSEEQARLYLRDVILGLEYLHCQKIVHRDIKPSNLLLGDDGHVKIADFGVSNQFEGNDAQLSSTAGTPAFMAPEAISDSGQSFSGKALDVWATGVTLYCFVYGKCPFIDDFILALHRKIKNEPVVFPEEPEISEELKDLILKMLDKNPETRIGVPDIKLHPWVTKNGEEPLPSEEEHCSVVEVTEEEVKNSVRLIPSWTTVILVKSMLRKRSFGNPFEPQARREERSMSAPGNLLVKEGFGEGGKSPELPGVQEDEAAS
Sequence of Microtubule-associated serine/threonine-protein kinase 1 (Homo sapiens) (Q9Y2H9 whole entry, looked up): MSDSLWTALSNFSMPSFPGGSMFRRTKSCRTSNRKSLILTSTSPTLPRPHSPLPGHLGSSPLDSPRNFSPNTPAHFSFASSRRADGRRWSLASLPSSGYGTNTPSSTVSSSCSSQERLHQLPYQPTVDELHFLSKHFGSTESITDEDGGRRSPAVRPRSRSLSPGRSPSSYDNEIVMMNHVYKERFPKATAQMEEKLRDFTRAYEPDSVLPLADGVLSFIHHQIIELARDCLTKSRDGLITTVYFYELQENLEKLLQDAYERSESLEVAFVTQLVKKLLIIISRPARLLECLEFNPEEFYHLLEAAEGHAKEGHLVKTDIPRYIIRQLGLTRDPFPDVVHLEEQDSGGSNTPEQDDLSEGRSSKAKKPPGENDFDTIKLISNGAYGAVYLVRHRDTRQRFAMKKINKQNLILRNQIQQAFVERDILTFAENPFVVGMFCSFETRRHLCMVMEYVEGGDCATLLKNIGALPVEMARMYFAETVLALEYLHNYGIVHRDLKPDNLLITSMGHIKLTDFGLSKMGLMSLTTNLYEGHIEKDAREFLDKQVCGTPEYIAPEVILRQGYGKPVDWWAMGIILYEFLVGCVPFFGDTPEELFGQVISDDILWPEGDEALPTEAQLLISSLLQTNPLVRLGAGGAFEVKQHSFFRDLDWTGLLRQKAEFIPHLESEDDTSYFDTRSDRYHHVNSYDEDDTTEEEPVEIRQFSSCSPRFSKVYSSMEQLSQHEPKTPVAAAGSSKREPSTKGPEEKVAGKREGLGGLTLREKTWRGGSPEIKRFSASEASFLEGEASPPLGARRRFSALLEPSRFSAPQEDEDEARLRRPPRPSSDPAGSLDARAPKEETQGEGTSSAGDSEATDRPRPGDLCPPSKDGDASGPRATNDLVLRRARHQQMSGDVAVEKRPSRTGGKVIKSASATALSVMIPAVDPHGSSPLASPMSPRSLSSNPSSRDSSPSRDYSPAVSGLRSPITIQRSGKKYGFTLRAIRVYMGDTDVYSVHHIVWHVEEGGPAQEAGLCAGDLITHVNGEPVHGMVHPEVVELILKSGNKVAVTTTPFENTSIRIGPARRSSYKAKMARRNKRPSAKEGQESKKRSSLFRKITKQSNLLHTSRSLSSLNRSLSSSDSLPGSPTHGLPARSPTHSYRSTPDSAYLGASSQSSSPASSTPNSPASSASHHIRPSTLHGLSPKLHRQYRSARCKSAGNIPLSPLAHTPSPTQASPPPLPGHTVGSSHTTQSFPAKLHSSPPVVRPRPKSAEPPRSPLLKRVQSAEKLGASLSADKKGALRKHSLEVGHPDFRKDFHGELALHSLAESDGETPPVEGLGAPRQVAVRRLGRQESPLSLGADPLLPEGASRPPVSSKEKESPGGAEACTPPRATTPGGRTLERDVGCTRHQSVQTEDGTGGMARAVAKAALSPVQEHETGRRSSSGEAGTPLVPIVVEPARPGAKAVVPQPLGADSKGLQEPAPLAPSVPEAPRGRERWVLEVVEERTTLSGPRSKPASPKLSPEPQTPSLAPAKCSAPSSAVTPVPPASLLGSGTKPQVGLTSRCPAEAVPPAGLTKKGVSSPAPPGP
Sequence of Mast/stem cell growth factor receptor Kit (Homo sapiens), P10721 [A829P] (P10721 whole entry A829P): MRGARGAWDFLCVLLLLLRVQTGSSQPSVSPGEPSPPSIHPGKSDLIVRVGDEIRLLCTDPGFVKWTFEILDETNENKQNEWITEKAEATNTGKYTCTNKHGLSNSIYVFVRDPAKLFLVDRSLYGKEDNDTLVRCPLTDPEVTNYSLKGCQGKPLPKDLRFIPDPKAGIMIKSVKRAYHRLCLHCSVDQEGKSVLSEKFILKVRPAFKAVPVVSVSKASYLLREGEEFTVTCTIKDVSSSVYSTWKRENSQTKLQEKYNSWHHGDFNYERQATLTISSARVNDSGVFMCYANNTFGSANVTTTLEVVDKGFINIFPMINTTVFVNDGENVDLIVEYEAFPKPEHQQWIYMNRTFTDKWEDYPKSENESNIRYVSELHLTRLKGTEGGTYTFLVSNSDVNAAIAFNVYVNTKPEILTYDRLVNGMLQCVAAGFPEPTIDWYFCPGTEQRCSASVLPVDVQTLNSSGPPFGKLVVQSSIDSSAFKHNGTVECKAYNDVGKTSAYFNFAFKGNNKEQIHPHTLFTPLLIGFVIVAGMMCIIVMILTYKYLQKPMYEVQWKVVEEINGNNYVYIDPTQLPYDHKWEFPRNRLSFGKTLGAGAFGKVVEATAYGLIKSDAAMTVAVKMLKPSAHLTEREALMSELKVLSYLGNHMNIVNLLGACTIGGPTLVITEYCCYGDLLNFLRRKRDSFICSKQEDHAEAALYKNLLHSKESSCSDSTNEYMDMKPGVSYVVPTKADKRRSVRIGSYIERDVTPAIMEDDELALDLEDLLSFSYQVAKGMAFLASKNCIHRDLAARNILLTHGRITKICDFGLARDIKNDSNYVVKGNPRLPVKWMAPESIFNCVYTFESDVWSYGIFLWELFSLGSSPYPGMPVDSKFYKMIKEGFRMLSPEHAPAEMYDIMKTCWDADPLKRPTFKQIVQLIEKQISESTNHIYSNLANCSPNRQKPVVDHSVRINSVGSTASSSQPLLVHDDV
Sequence of Interferon-induced, double-stranded RNA-activated protein kinase (Homo sapiens) (P19525 whole entry): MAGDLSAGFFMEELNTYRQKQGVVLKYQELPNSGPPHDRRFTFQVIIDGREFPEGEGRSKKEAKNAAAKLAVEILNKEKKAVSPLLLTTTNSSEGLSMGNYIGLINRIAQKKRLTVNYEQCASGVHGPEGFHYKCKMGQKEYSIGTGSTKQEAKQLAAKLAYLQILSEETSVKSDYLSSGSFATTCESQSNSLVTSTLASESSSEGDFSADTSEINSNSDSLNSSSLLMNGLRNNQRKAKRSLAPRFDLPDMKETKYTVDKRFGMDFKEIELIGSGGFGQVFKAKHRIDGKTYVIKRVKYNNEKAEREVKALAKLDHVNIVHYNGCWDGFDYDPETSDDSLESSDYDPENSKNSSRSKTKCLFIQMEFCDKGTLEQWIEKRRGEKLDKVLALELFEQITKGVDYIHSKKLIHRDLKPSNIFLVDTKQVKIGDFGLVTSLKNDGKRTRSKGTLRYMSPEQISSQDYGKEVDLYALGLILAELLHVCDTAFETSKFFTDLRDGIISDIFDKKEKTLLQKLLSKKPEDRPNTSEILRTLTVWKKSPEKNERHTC

With `COc1cc2ncnc(N[C@H](C)c3cccc4ccccc34)c2cc1OC`, the Activity in assay [1] was 92%; in assay [2], 97%; in assay [3], 95%; in [4], 100%; in assay [5], 96%; in assay [6], 92%. Besides, the Activity was determined as 76% in [7], 100% in assay [8], 71% in assay [9] and 93% in [10].
